Experimental data published in patent US20090281049A1, “New use of ginsenoside compound-k in manufacturing medicaments” (priority 2006, published 2009).

Key:
[1] = system: carrageenan-induced acute inflammation in mice; experiment: Carrageenan-induced paw edema in mice; format: in vivo, Kunming mice
[2] = system: Collagen Type II (CII) induced arthritis in rats; experiment: Treatment effect on Collagen Type II (CII) induced arthritis in rats; format: in vivo, Rat, SD strain
Experimental: Inflammation-induced agent: Collagen Type II was dissolved in 0.1 mol/L acetic acid to make final concentration be 2 mg/ml collagen solution, and held in 4° C. overnight. The Collagen Type II solution was added to cold Freund's Adjuvant Incomplete by drops (Collagen Type II: Freund's Adjuvant Incomplete=1:1) on the next day, emulsified completely (Type II Collagen solution: Freund's Adjuvant Incomplete=1:1), and the final concentration of Collagen Type II was 1 mg/ml. The Collagen Type II emulsion was reserved in a refrigerator at 4° C.
Immune method: Each rat was immunized by being injected subcutaneously at 5 points on the back with 0.1 ml emulsion in each point, total of […] (contained 0.5 mg Collagen Type II), and immunized again in the same way 7 days later. An emulsion of 0.1 mol/L acetic acid and Freund's Adjuvant Incomplete was injected in control group. The swell values of the arthrosis in right hind ankle and foot were measured respectively by using a hydroplethismometer before injection and 20 days after immunization.
Collagen Type II (CII) and Freund's Adjuvant Incomplete were ground into emulsion and were injected subcutaneously into the back of the rats for immunization. Until the 19th day, most parts of the pedal joint of the rats began to swell. Picked 40 rats out which were with swelled pedal joint and divided them into […] subsequently, i.e. 8 rats in each group. They are respectively […]: Ginsenoside Compound-K, 10 mg/kg, iv, medium dose group: Ginsenoside Compound-K, 5 mg/kg, iv, small dose group: Ginsenoside Compound-K, 2.5 mg/kg, iv, Enbrel group: 9 mg/kg, sc, Tripterygium Wilfordii Hook group: 1.5 mg/kg, po. and blank control group: physiological saline 10 mg/kg, iv. The rats were administered for 8 days consecutively. The swell value of the foot was measured respectively by using hydroplethismometer before inflammation induced and at different time after the onset of symptoms, then calculated swell rate and prohibition rate, and compared the differences among groups with t test.

Compound: CC(C)=CCC[C@](C)(O[C@@H]1O[C@H](CO)[C@@H](O)[C@H](O)[C@H]1O)[C@H]1CC[C@]2(C)[C@@H]1[C@H](O)C[C@@H]1[C@@]3(C)CC[C@H](O)C(C)(C)[C@@H]3CC[C@]12C [Ginsenoside Compound-K, ginsenoside Compound-K]
- swell value ([1]; 2.5 mg/kg iv, 0 h): 1.49 ± 0.15 mL
- inhibition rate ([1]; 2.5 mg/kg iv, 1 h): <14.70> %
- swell rate ([1]; 2.5 mg/kg iv, 1 h): (66.63 ± 7.82) %
- swell value ([1]; 2.5 mg/kg iv, 1 h): 2.36 ± 0.22 mL
- inhibition rate ([1]; 2.5 mg/kg iv, 2 h): <12.30> %
- swell rate ([1]; 2.5 mg/kg iv, 2 h): (64.26 ± 14.54) %
- swell value ([1]; 2.5 mg/kg iv, 2 h): 2.43 ± 0.23 mL
- inhibition rate ([1]; 2.5 mg/kg iv, 4 h): <29.40> %
- swell rate ([1]; 2.5 mg/kg iv, 4 h): (61.75 ± 11.27) %
- swell value ([1]; 2.5 mg/kg iv, 4 h): 2.33 ± 0.17 mL
- inhibition rate ([1]; 2.5 mg/kg iv, 6 h): <31.64> %
- swell rate ([1]; 2.5 mg/kg iv, 6 h): (53.48 ± 11.12) %
- swell value ([1]; 2.5 mg/kg iv, 6 h): 2.22 ± 0.15 mL
- swell value ([1]; 5 mg/kg iv, 0 h): 1.47 ± 0.13 mL
- inhibition rate ([1]; 5 mg/kg iv, 1 h): <11.33> %
- swell rate ([1]; 5 mg/kg iv, 1 h): (60.97 ± 18.09) %
- swell value ([1]; 5 mg/kg iv, 1 h): 2.36 ± 0.23 mL
- inhibition rate ([1]; 5 mg/kg iv, 2 h): <16.08> %
- swell rate ([1]; 5 mg/kg iv, 2 h): (60.97 ± 18.41) %
- swell value ([1]; 5 mg/kg iv, 2 h): 2.35 ± 0.16 mL
- inhibition rate ([1]; 5 mg/kg iv, 4 h): <44.03> %
- swell rate ([1]; 5 mg/kg iv, 4 h): (45.04 ± 18.30) %
- swell value ([1]; 5 mg/kg iv, 4 h): 2.12 ± 0.22 mL
- inhibition rate ([1]; 5 mg/kg iv, 6 h): <31.98> %
- swell rate ([1]; 5 mg/kg iv, 6 h): (49.81 ± 17.26) %
- swell value ([1]; 5 mg/kg iv, 6 h): 2.19 ± 0.19 mL
- swell value ([1]; 10 mg/kg iv, 0 h): 1.56 ± 0.17 mL
- inhibition rate ([1]; 10 mg/kg iv, 1 h): <40.64> %
- swell rate ([1]; 10 mg/kg iv, 1 h): (40.81 ± 10.14) %
- swell value ([1]; 10 mg/kg iv, 1 h): 2.18 ± 0.18 mL
- inhibition rate ([1]; 10 mg/kg iv, 2 h): <42.79> %
- swell rate ([1]; 10 mg/kg iv, 2 h): (41.56 ± 13.38) %
- swell value ([1]; 10 mg/kg iv, 2 h): 2.19 ± 0.20 mL
- inhibition rate ([1]; 10 mg/kg iv, 4 h): <65.66> %
- swell rate ([1]; 10 mg/kg iv, 4 h): (27.64 ± 8.46) %
- swell value ([1]; 10 mg/kg iv, 4 h): 1.98 ± 0.20 mL
- inhibition rate ([1]; 10 mg/kg iv, 6 h): <67.80> %
- swell rate ([1]; 10 mg/kg iv, 6 h): (23.58 ± 15.23) %
- swell value ([1]; 10 mg/kg iv, 6 h): 1.91 ± 0.22 mL
- overall effect on carrageenan-induced acute inflammation ([1]; mice, 10, 5, 2.5 mg/kg iv): able to inhibit carrageenan-induced acute inflammation in mice obviously
- swell value ([2]; 2.5 mg/kg iv, 0 day): 1.03 ± 0.05 mL
- inhibition rate ([2]; 2.5 mg/kg iv, 20 day): <18.95> %
- swell rate ([2]; 2.5 mg/kg iv, 20 day): (43.79 ± 12.08%
- swell value ([2]; 2.5 mg/kg iv, 20 day): 1.48 ± 0.11 mL
- inhibition rate ([2]; 2.5 mg/kg iv, 22 day): <19.94> %
- swell rate ([2]; 2.5 mg/kg iv, 22 day): (48.22 ± 10.27) %
- swell value ([2]; 2.5 mg/kg iv, 22 day): 1.53 ± 0.06 mL
- inhibition rate ([2]; 2.5 mg/kg iv, 23 day): <17.70> %
- swell rate ([2]; 2.5 mg/kg iv, 23 day): (51.23 ± 9.82) %
- swell value ([2]; 2.5 mg/kg iv, 23 day): 1.56 ± 0.06 mL
- inhibition rate ([2]; 2.5 mg/kg iv, 25 day): <16.26> %
- swell rate ([2]; 2.5 mg/kg iv, 25 day): (51.66 ± 18.36) %
- swell value ([2]; 2.5 mg/kg iv, 25 day): 1.56 ± 0.16 mL
- inhibition rate ([2]; 2.5 mg/kg iv, 28 day): <20.52> %
- swell rate ([2]; 2.5 mg/kg iv, 28 day): (41.04 ± 10.92) %
- swell value ([2]; 2.5 mg/kg iv, 28 day): 1.45 ± 0.10 mL
- inhibition rate ([2]; 2.5 mg/kg iv, 31 day): <22.73> %
- swell rate ([2]; 2.5 mg/kg iv, 31 day): (37.86 ± 11.18) %
- swell value ([2]; 2.5 mg/kg iv, 31 day): 1.42 ± 0.10 mL
- swell value ([2]; 5 mg/kg iv, 0 day): 1.03 ± 0.05 mL
- inhibition rate ([2]; 5 mg/kg iv, 20 day): <9.35> %
- swell rate ([2]; 5 mg/kg iv, 20 day): (48.97 ± 27.82%
- swell value ([2]; 5 mg/kg iv, 20 day): 1.52 ± 0.21 mL
- inhibition rate ([2]; 5 mg/kg iv, 22 day): <12.39> %
- swell rate ([2]; 5 mg/kg iv, 22 day): (52.77 ± 21.55) %
- swell value ([2]; 5 mg/kg iv, 22 day): 1.56 ± 0.15 mL
- inhibition rate ([2]; 5 mg/kg iv, 23 day): <13.87> %
- swell rate ([2]; 5 mg/kg iv, 23 day): (53.62 ± 14.27) %
- swell value ([2]; 5 mg/kg iv, 23 day): 1.58 ± 0.13 mL
- inhibition rate ([2]; 5 mg/kg iv, 25 day): <15.62> %
- swell rate ([2]; 5 mg/kg iv, 25 day): (52.06 ± 18.56) %
- swell value ([2]; 5 mg/kg iv, 25 day): 1.56 ± 0.19 mL
- inhibition rate ([2]; 5 mg/kg iv, 28 day): <13.17> %
- swell rate ([2]; 5 mg/kg iv, 28 day): (44.84 ± 25.91) %
- swell value ([2]; 5 mg/kg iv, 28 day): 1.49 ± 0.28 mL
- inhibition rate ([2]; 5 mg/kg iv, 31 day): <15.64> %
- swell rate ([2]; 5 mg/kg iv, 31 day): (41.34 ± 13.83) %
- swell value ([2]; 5 mg/kg iv, 31 day): 1.45 ± 0.13 mL
- swell value ([2]; 10 mg/kg iv, 0 day): 1.04 ± 0.19 mL
- inhibition rate ([2]; 10 mg/kg iv, 20 day): <12.61> %
- swell rate ([2]; 10 mg/kg iv, 20 day): (47.22 ± 18.60) %
- swell value ([2]; 10 mg/kg iv, 20 day): <1.52 ± 0.19 mL
- inhibition rate ([2]; 10 mg/kg iv, 22 day): <16.28> %
- swell rate ([2]; 10 mg/kg iv, 22 day): (50.43 ± 9.45) %
- swell value ([2]; 10 mg/kg iv, 22 day): 1.54 ± 0.12 mL
- inhibition rate ([2]; 10 mg/kg iv, 23 day): <19.28> %
- swell rate ([2]; 10 mg/kg iv, 23 day): (50.25 ± 22.06) %
- swell value ([2]; 10 mg/kg iv, 23 day): 1.54 ± 0.10 mL
- inhibition rate ([2]; 10 mg/kg iv, 25 day): <17.95> %
- swell rate ([2]; 10 mg/kg iv, 25 day): (50.62 ± 21.43) %
- swell value ([2]; 10 mg/kg iv, 25 day): 1.54 ± 0.12 mL
- inhibition rate ([2]; 10 mg/kg iv, 28 day): <22.09> %
- swell rate ([2]; 10 mg/kg iv, 28 day): (40.23 ± 16.26) %
- swell value ([2]; 10 mg/kg iv, 28 day): 1.44 ± 0.13 mL
- inhibition rate ([2]; 10 mg/kg iv, 31 day): <27.67> %
- swell rate ([2]; 10 mg/kg iv, 31 day): (35.44 ± 22.50) %
- swell value ([2]; 10 mg/kg iv, 31 day): 1.38 ± 0.11 mL
- overall treatment effect on Collagen Type II induced arthritis ([2]; rats, 10, 5, 2.5 mg/kg iv for 8 days): able to cure Collagen Type II induced arthritis
